Results as given in patent publication US20240209353A1, “NADK2 INHIBITION IN CANCER AND FIBROTIC DISORDERS” (Memorial Sloan-Kettering Cancer Center, priority 2021, published 2024).
“And” between values parts separate entries of the source, which are not always exact repeats. Identical values can stand only once.

System: DLD1-OMP25HA cells
Assay: LC-MS metabolomic profiling, whole cell samples
Type: cell-based, human
Conditions: DLD1-OMP25HA sgCtrl + Piericidin 5 μM 2 hours, rep01-rep03
Method: Rapid immunopurification of mitochondria was performed following the published methodology (4). In brief, cells with control or NADK2 knockout were engineered to express the HA-tagged OMP25 protein (Addgene, 83356); or in the case of FIG. 5E, parental DLD1 cells were engineered to express the HA-tagged OMP25 protein or the Myc-tagged OMP25 protein (Addgene, 83355), 30 million cells were washed and dounce homogenized in KPBS (136 mM KCl and 10 mM KH2PO4, pH 7.25). The homogenate was then cleared by centrifugation and the supernatant was applied to anti-HA beads (Thermo Fisher, 88837) and incubated with rotation for 3.5 min. The resultant beads were washed with KPBS and were eluted for different downstream analyses: Triton X-100 lysis buffer (50 mM Tris-HCl, pH 7.4, 150 mM NaCl, 1 mM EDTA, 1% (vol/vol) Triton X-100, and protease inhibitors) was used to elute mitochondria for Western blot analysis; 80:20 methanol:water containing 1.5 μM ^13C^15N labeled amino acids (Cambridge Isotope Laboratories, MSK-A2-1.2) was used to elute mitochondria for liquid chromatography-mass spectrometry (LC-MS) analysis; 80:20 methanol:water was used to elute mitochondria for NAD(H) and NADP(H) measurements; glutathione lysis buffer (see below) was used to elute mitochondria for GSH measurements.
For negative ionization mode liquid chromatography separation was achieved on an iHILIC-(P) Classic column (100 mm×2.1 mm, 5 μm particle size, HILICON). Mobile phase A was 10 mM ammonium bicarbonate in 10:90 acetonitrile:water with 5 μM medronic acid, pH 9.4 and mobile phase B was 10 mM ammonium bicarbonate in 90:10 acetonitrile:water with 5 μM medronic acid, pH 9.4). The gradient was 0 min, 95% B; 15 min, 50% B; 18 min, 50% B; 19 min, 95% B; 19.10 min, 95% B; 25.5 min, 95% B; 2 mins posttime. Other LC parameters were: flow rate: 200 μL/min; column temperature: 40° C., and injection volume was 2 μL. MS parameters were: gas temp: 300° C.; gas flow: 10 L/min; nebulizer pressure: 40 psig; sheath gas temp: 350° C.; sheath gas flow: 12 L/min; VCap: 3,000 V; fragmentor: 125 V. Data were acquired from m/z 50-1700 with active reference masses correction (m/z: 121.05087 and 922.00980 (positive mode) or m/z: 119.03632 and 980.01638 (negative mode). Peak identification and integration were done based on in-house exact mass and retention time library built from commercial standards. Data analysis and natural isotope abundance correction were performed using MassHunter Profinder software v10.0 (Agilent Technologies).
For metabolomic profiling of the Mito-IP samples, dried extracts were resuspended in 30 μL of 60:40 acetonitrile:water and an additional 7.5 μL of 100% methanol added to prevent phase separation. Samples were vortexed, incubated on ice for 20 min, and clarified by centrifugation at 20,000 g for 20 min at 4° C. LC-MS analysis was using the iHILIC-(P) Classic negative method described with 6545 Q-TOF mass spectrometer (Agilent Technologies). Whole cell extracts were analyzed in parallel and data analysis was performed using MassHunter Profinder v10.0 software (Agilent Technologies). Metabolite identifications reported were based on either (a) exact mass and retention times matched to authentic standards (denoted as RT in Tables 1A-1G) or (b) exact mass and MS2 spectra match using SIRIUS software (denoted as MS2 in Tables 1A-1G) (https://bio.informatik.uni-jena.de/software/sirius/). Metabolites were considered to be mitochondrial if the average peak area measured in anti-HA Mito-IPs from HA-tagged OMP25 cells was at least 1.5-fold more than in anti-HA Mito-IPs from the control cell expressing Myc-tagged OMP25 (scc Tables 1A-1G; FC>1.5 for [OMP25HA sgCtrl MitoIP vs. OMP25Myc MitoIP]).

## C/C=C(\C)[C@H](O)[C@H](C)/C=C(C)/C=C/C/C(C)=C/Cc1nc(OC)c(OC)c(O)c1C [piericidin]
  2-aminoadipate: 146679 and 129247 and 159230
  2-hydroxyglutarate: 3675897 and 3670344 and 3586833
  3-methyl-2-oxovalerate: 3696272 and 2980891 and 4249362
  4-acetylbutyrate: 10363291 and 8533694 and 12130178
  4-hydroxyproline: 522424 and 441928 and 551397
  5-methylthioadenosine (MTA): 257749 and 400467 and 367942
  5-oxoproline: 16393034 and 14068076 and 17132083
  6-phosphogluconate: 65481 and 57701 and 58966
  N6-(delta-isopentenyl)-adenine: 293077 and 229998 and 281738
  N-acetyl-beta-alanine: 1022765 and 956905 and 1036571
  N-acetylalanine: 238161 and 214277 and 230562
  N-acetylaspartate (NAA): 12095956 and 11050203 and 12351863
  N-acetylglucosamine 6-phosphate: 428986 and 380372 and 454385
  N-acetylglutamate: 987898 and 1549149 and 871723
  N-acetylglycine: 43846 and 40358 and 41154
  N-acetylmethionine: 462515 and 426811 and 428397
  N-acetylserine: 5896001 and 5058414 and 6358391
  N-acetyltaurine: 1110210 and 1084752 and 1148548
  N-acetylthreonine: 1380430 and 1226851 and 1295989
  UDP-N-acetylglucosamine: 4639411 and 4238311 and 4998970
  UDP-glucuronate: 1027925 and 858275 and 1243921
  aconitate: 346582 and 453318 and 406006
  adenine: 481304 and 768689 and 708555
  adenosine 5′-diphosphate (ADP): 1129524 and 1189412 and 1083190
  adenosine 5′-monophosphate (AMP): 646021 and 715531 and 648428
  adenosine 5′-triphosphate (ATP): 2352445 and 2990040 and 2388618
  alanine: 1663860 and 1344230 and 1765231
  alanylhistidine: 22199 and 41823 and 30446
  allantoin: 3703951 and 3225148 and 4031072
  arginine: 1086834 and 998509 and 1348136
  asparagine: 2068551 and 1580346 and 2240202
  aspartate: 1717174 and 1947525 and 1819639
  beta-glycerophosphoric acid: 850446 and 705915 and 880253
  betaine: 161649 and 112014 and 159770
  caproate: 114886 and 109032 and 115791
  carbamoyl aspartate: 3763133 and 3469742 and 3815379
  carnitine: 43283 and 41086 and 45131
  citrate: 9028971 and 10970194 and 9594217
  creatine: 549841 and 451406 and 565679
  creatine phosphate: 394087 and 351223 and 410441
  creatinine: 277361 and 240499 and 323168
  cytidine 5′-triphosphate (CTP): 81066 and 75474 and 92586
  dihydroxyacetone phosphate (DHAP): 1214605 and 1228567 and 1670800
  dodecanoate: 303807 and 282352 and 360172
  flavin adenine dinucleotide (FAD): 115513 and 108031 and 137050
  folate: 99228 and 128177 and 134416
  formylpyruvate: 1414077 and 902945 and 1059691
  fructose 1,6-biphosphate: 1321982 and 1216851 and 1680580
  fructose 6′-phosphate: 57127 and 49316 and 50145
  fumarate: 357661 and 412548 and 377283
  galactitol: 918739 and 708477 and 1199966
  galactonic acid: 2240293 and 1677985 and 2390572
  gamma-aminobutyrate (GABA): 3496195 and 3622488 and 3524195
  glucosamine: 164826 and 119694 and 178113
  glucose 6′-phosphate: 755029 and 621609 and 531377
  glutamate: 126622339 and 129663305 and 129294077
  glutamine: 58464656 and 69652329 and 62470821
  glyceraldehyde 3-phosphate: 3045295 and 3098709 and 4229751
  glycerophosphorylcholine (GPC): 210330 and 183098 and 225230
  glycine: 146868 and 137614 and 144892
  glycylaspartate: 205091 and 201360 and 226481
  guanosine 5′-diphosphate (GDP): 69660 and 69853 and 38046
  guanosine 5′-diphosphoglucose: 33192 and 34147 and 38993
  guanosine 5′-monophosphate (GMP): 44633 and 51573 and 51777
  guanosine 5′-triphosphate (GTP): 171526 and 214847 and 133658
  histidine: 15027640 and 12343272 and 17476456
  hydroxyphenyllactate: 1478092 and 1166698 and 1355443
  inosine 5′-monophosphate (IMP): 22897 and 17939 and 22222
  isoleucine: 4513788 and 3853543 and 5003963
  lactate: 105521436 and 97172905 and 114401680
  leucine: 7669096 and 6479727 and 8479119
  lysine: 195097 and 149255 and 233140
  malate: 12653099 and 10480180 and 12542946
  methionine: 1041135 and 894784 and 1078995
  methylthioribulose 1-phosphate: 21298086 and 18010540 and 22620900
  nicotinamide: 39081 and 33023 and 41574
  nicotinamide adenine dinucleotide (NAD+): 7875605 and 8688241 and 9053967
  nicotinamide adenine dinucleotide phosphate (NADP+): 15380 and 19291 and 12614
  nicotinamide adenine dinucleotide, reduced (NADH): 455322 and 465048 and 452884
  oleate: 460639 and 248285 and 328228
  palmitate: 20015231 and 20994808 and 24605738
  pantothenate: 8937050 and 7961239 and 9124782
  pentadecanoic acid: 302982 and 182808 and 229103
  phenylacetate: 87967 and 87598 and 109383
  phenylacetylglycine: 1781914 and 1641866 and 2033368
  phenylalanine: 6841254 and 5972052 and 7346184
  phosphocholine: 1734241 and 1590770 and 1746457
  phosphoenolpyruvate (PEP): 217348 and 206448 and 247608
  proline: 4018244 and 3303744 and 4136919
  ribose 5′-phosphate: 30487 and 39389 and 44236
  serine: 1972729 and 1697021 and 2115421
  serinylaspartate: 80143 and 82279 and 87822
  sn-glycero-3-phosphoethanolamine: 3947102 and 4703023 and 3861169
  stearate: 10555350 and 11041062 and 14072247
  succinate: 468012 and 552589 and 622074
  taurine: 79062900 and 54111662 and 81152564
  threonate: 4663562 and 3938483 and 4644285
  threonine: 13508533 and 12463455 and 14159756
  thymidine 5′-diphospho-alpha-D-glucose: 14725 and 13909 and 14870
  thymine: 24681 and 21055 and 27340
  tryptophan: 747292 and 595893 and 756562
  tyrosine: 3847092 and 3576189 and 3918008
  uridine 5′-diphosphate (UDP): 175584 and 155688 and 210038
  uridine 5′-monophosphate (UMP): 631970 and 347896 and 460624
  uridine 5′-triphosphate (UTP): 3135652 and 2793092 and 3584193
  valine: 1041408 and 903609 and 1081229
